Measurements taken from patent US20120009151A1, “Triazines And Related Compounds Having Antiviral Activity, Compositions And Methods Thereof” (priority 2007, published 2012).
Counter-ions that a name gives are not always drawn.

Tested on: not given
Assay: not given
Details: not given

| SMILES | melting point [°C] |
| --- | --- |
| FC(F)(F)c1cccc(Nc2nc(NCc3ccco3)nc(OCc3ccncc3)n2)c1 | 124 to 126 |
| Oc1ccc(Nc2nc(NCc3ccco3)nc(Oc3ccc(O)cc3)n2)cc1 | 80 to 83 |
| Cc1ccc(CNc2nc(OCC(F)(F)F)nc(Oc3cccc(C(F)(F)F)c3)n2)o1 | 116 to 118 |
| CCNc1nc(NCCN2CCCC2)nc(Nc2ccc(OC)cc2)n1 (as salt: hydrochloride) | 29 to 31 |
| CCOc1nc(NCc2ccco2)nc(N2CCN(Cc3ccccn3)CC2)n1 | 115 to 117 |

Results, then the compound that gave them:

| melting point [°C] | SMILES |
| --- | --- |
| 98 to 99 | CC(C)N1CCC(Nc2nc(NCc3ccc(F)cc3)nc(OCC(F)(F)F)n2)C1 (stereo not shown) |
| 266 to 268 | Oc1nc(NCc2ccc(F)cc2)nc(Nc2cccc(C(F)(F)F)c2)n1 |
| 148 to 150 | Fc1ccc(CNc2nc(Nc3cccc(Cl)c3)nc(OCC(F)(F)F)n2)cc1 |
| 107 to 109 | Fc1ccc(CNc2nc(OCC(F)(F)F)nc(Oc3cccc(C(F)(F)F)c3)n2)cc1 |
| 170 to 172 | Fc1ccc(CNc2nc(OCC(F)(F)F)nc(-c3ccccc3)n2)cc1 |
| 105 to 107 | Fc1ccc(CNc2nc(NCc3ccccc3F)nc(OCC(F)(F)F)n2)cc1 |
| 101 to 103 | Fc1ccc(CNc2nc(OCc3ccccc3)nc(OCC(F)(F)F)n2)cc1 |

Tested on: H77/JFH-1 chimeric HCVcc
Assay: HCV cell culture (HCVcc) model, Renilla luciferase
Assay type: cell-based
Details: H77/JFH-1 HCVcc, Huh 7.5 cells, Renilla luciferase 72 hours post-infection

| SMILES | EC50 [nM] |
| --- | --- |
| C[C@@]1(O)[C@H](O)[C@@H](CO)O[C@H]1n1cnc2c(N)ncnc21 [Compound 2-CMA] | 92 |
